Assay results published in US20100279327A1, “METHOD OF TREATING DISEASES WITH PARP INHIBITORS” (BiPar Sciences, Inc., priority 2006, published 2010).

Tested on: PARP1 (poly (ADP-ribose) polymerase family, member 1)
Assay: PARP1 mRNA expression, Affymetrix human genome GeneChip (probe set 208644_at), Diff/X and e-Northern
Conditions: Normal; for PARP1 expression, Experiment Mean: patients taking the medication, signal intensity of 208644_at; for PARP1 Fold change (FC): patients taking vs patients not taking the medication
Text: GeneChip arrays have been widely used for monitoring mRNA expression in many areas of biomedical research. The high-density oligonucleotide array technology allows researchers to monitor tens of thousands of genes in a single hybridization experiment as they are expressed differently in tissues and cells. The expression profile of a mRNA molecule of a gene is obtained by the combined intensity information from probes in a probe set, which consists of 11-20 probe pairs of oligonucleotides of 25 by in length, interrogating a different part of the sequence of a gene.
The gene expressions were assessed using the Affymetrix human genome genechips (45,000 gene transcripts covering 28,473 UniGene clusters). Approximately 5 μg total RNA from each sample were labeled using high yield transcript labeling kit and labeled RNAs were hybridized, washed, and scanned according to manufacturer's specifications (Affymetrix, Inc., Santa Clara, Calif.). Affymetrix Microarray Suite 5.0 software (MASS) was used to estimate transcript signal levels from scanned images (Affymetrix). The signals on each array were normalized to a trimmed mean value of 500, excluding lowest 2% and highest 2% of the signals. An Affymetrix probe set representing a unique Genbank sequence is referred as a probe or gene hereafter for convenience. To verify any errors in the expressions caused by image defects, the correlation coefficient of each array to an idealized distribution was determined where the idealized distribution is mean of all arrays. The genes are filtered from the remaining arrays using detection P value reported by MASS. The genes having P>0.065 in 95% of the arrays are eliminated and all other signals are included for statistical comparisons of classes.
The PARP1 gene is represented on the HG-U133A array by a single probe set with the identifier W208644_at”. All results in this report were generated based on the MASS expression signal intensities for this probe set and will be referred to as “PARP1”.
The PARP1 gene is represented on the HG-U133A array by a single probe set with the identifier “208644_at”. All results in this report were generated based on the MASS expression signal intensities for this probe set and will be referred to as “PARP1”. In addition, the seven genes, BRCA1, BRCA2, RAD51, MRE11, p53, PARP2 and MUCIN 16, are represented on the HG-U133A/B array set by 11 informative probe sets. Three probe sets were excluded from this analysis because they were considered to be non-responsive on the array.
RNA is evaluated for quality and integrity (via Agilent Bioanalyzer derived […] ratio and RNA integrity number (RIN)), purity (via absorbance ratio at A260/A280), and quantity (via absorbance at A260 or alternative assay (i.e. ribogreen)), Quantity and purity of cRNA synthesis product is assessed using UV absorbance. Quality of cRNA synthesis is assessed using either the Agilent Bioanalyzer or a MOPS agarose gel. Array quality is evaluated using a proprietary high throughput application by which arrays are evaluated against several strict objective standards such as 5′/3′ GAPDH ratio, signal/noise ratio. and background as well as over thirty additional metrics (e.g. outlier, vertical variance). Data generated throughout the process is managed within the quality system to ensure data integrity of the data.
23, 122, and 57 pathologically normal tissue samples were used to determine baseline expression of the PARP1 gene in endometroid, lung, and prostate tissue, respectively. The mean and 90%, 95%, 99%, and 99.9% upper confidence limits for an individual predicted value (UCLs) were calculated. Because we are assessing the likelihood that individual samples external to the normal set are within the baseline distribution, the prediction interval, rather than the confidence interval for the mean, was selected to estimate the expected range for future individual measurements. […]

[1] = Superior Temporal Gyrus (Brodmann Area 22)
[2] = Stomach, positive = up-regulated, negative = down-regulated

Molecule | PARP1 expression, Experiment Mean (Stomach) | PARP1 Fold change (FC) [2] | also measured
CC(=O)Nc1ccc(O)cc1 [Acetaminophen] |  |  | PARP1 expression, Experiment Mean [1]: 290.49; PARP1 Fold change (FC) [1]: 1.28
CC(C)NCC(O)COc1ccc(CC(N)=O)cc1 (centres unmarked) [Atenolol] |  |  | PARP1 expression, Experiment Mean (Ovary): 138.57; PARP1 Fold change (FC) (Ovary, negative = down-regulated): −1.22
CC(C)c1c(C(=O)Nc2ccccc2)c(-c2ccccc2)c(-c2ccc(F)cc2)n1CC[C@@H](O)C[C@@H](O)CC(=O)O [Atorvastatin] | 176.85 | −1.24 | 
Estrogens | 228.75 | 1.27 | 
